Measurements from patent US5866570A, “Treatment of vascular leakage and related syndrome such as septic shock by administration of metalloproteinase inhibitors” (Wisconsin Alumni Research Foundation, priority 1994, dated 1999).
pIC50: −log10 of the molar value. Read-outs that look alike come from different tables or passages of the source.

Key:
[1] = biological target: T1, recombinant human 72 kD type IV collagenase (Oncologix), APMA activated (Homo sapiens, UniProt P08253); test: gelatinase assay, Example 11; type: biochemical
T1 construct: purchased Oncologix
T1 sequence (P08253 110-660): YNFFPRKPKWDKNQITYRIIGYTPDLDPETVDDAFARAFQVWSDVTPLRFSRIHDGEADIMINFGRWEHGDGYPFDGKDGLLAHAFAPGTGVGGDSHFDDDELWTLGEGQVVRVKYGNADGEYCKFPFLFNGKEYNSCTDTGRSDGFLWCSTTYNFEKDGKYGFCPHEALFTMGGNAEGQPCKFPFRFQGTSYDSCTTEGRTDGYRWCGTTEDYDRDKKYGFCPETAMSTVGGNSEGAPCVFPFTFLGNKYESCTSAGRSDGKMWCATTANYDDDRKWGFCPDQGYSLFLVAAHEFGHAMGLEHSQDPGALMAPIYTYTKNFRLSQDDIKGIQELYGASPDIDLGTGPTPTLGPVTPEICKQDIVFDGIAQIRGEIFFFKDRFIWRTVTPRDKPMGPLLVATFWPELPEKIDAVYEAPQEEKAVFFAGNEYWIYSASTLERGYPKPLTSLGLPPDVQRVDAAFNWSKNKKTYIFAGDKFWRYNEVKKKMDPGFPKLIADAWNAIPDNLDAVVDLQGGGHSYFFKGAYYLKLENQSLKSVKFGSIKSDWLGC
Procedure: NET-660 Collagen (Rat Type I), N-[Propionate-2-3-^3 H] Propionylated (NEN Dupont) with a specific activity of 0.4 mCi/mg, rat type I Collagen (Sigma), P-aminophenylmercuric acetate, APMA (Sigma), recombinant human 72 kD type IV collagenase (Oncologix) with a specific activity of at least 1000 μg collagen digested/hour/μg enzyme, collagenase buffer (50 mM Tris-HCl, 5 mM CaCl2, 200 mM NaCl, 0.02% Brij-35, pH 7.6), bovine serum albumin (BSA), 250 mM EDTA, and 10% TCA+0.7% tannic acid. The substrate is prepared by mixing the ^3 H collagen with the cold collagen at a 2/3 ratio and diluting in the collagenase buffer. The final assay concentration of the ^3 H collagen is 1% or between 20,000 to 40,000 cpm. Inhibitors are prepared just prior to use by dissolving in DMSO (final assay concentration<1%) or collagenase buffer.
The 72 kD collagenase enzyme is activated with 0.5 mM APMA for 30 min. at 37° C. and 10 ng of enzyme per assay is used. Inhibitors are preincubated with activated enzyme for 2 hours at 37° C. in collagenase buffer. Substrate is then added to enzyme inhibitor mix and the assay is run for 20 min at 37° C. […] Undigested substrate is precipitated with the TCA/tannic acid solution and soluble counts are determined in a scintillation counter.

BALB/C mice = test: septic shock induced by i.p. endotoxin (Salmonella abortus equi); type: in vivo; details: for Survival/Total Ratio after 24 h / Survival/Total Ratio after 48 h / Survival/Total Ratio after 72 h: endotoxin2 (Salmonella abortus equi) i.p., drug i.p. 1 h before, 9 h and 20 h after
Procedure: Effect of razoxane in preventing death due to endotoxin-induced septic shock. Twelve BALB/c mice (female, 10-12 weeks old, 18-20 g) were injected i.p. with endotoxin (Salmonella abortus equi) twice at time zero (70 μg/mouse) and 48 h (30 μg/mouse). Razoxane (2 mg/mouse, in 1% sodium carboxymethyl cellulose) was given i.p. three times, i.e., 1 h. before, 9 h. and 20 h. after injection of initial dose of endotoxin. Another twelve mice, injected with endotoxin as above, were treated with buffer solution (1 % sodium carboxymethyl cellulose) as negative controls. It can be seen therein that the majority of control mice were dead within 50 hours of the initial endotoxin administration. In contrast, approximately 80% of the razoxane treated mice were still alive after 50 hours. Moreover, about 60% of the razoxane treated mice were still alive 100 hours after endotoxin administration, and recovered later on.
Effect of Compound 80 in preventing death due to endotoxin-induced septic shock. Twenty BALB/c mice (female, 10-12 weeks old, 18-20 g) were injected i.p. with endotoxin (Salmonella abortus equi, 100 μg/mouse). Compound 80 (0.33 mg/mouse) was given i.p. to 10 mice three times, i.e., 1 hour before, 9 hours and 20 hours after injection of endotoxin. The other 10 mice were injected with diluents as negative controls. The number of the mice survived at different periods to time after endotoxin injection were recorded. (P<0.0002).

[2] = razoxane 2 mg/mouse i.p. three times, endotoxin 70 μg at 0 h and 30 μg at 48 h

Compound	pIC50 [1]	Survival/Total Ratio after 24 h (BALB/C mice)	Survival/Total Ratio after 48 h (BALB/C mice)	Survival/Total Ratio after 72 h (BALB/C mice)	treated mice still alive 100 hours after endotoxin administration (BALB/C mice; [2])	treated mice still alive after 50 hours (BALB/C mice; [2])	pIC50 ([1]; 10 ng enzyme, 2 hours preincubation at 37° C., 20 min assay, 3H collagen substrate, read-out: IC50 for inhibition of the 72 kD collagenase type IV)
CC(CN1CC(=O)NC(=O)C1)N1CC(=O)NC(=O)C1 (stereo not shown) [razoxane]	4.36	10/12	9/12	7/12	about 60%	approximately 80%	–
CC1(C)O[C@H]2C[C@H](N3CC(=O)NC(=O)C3)[C@@H](N3CC(=O)NC(=O)C3)C[C@@H]2O1 (relative stereo) [Compound 80, (3aα, 5β, 6α, 7aβ)-4,4'-(hexahydro-2,2-dimethyl-1,3-benzodioxole-5,6-diyl)bis(2,6-piperazinedione)]	–	10/10	8/10	6/10	–	–	5.74
